Assay results from patent US20240210394A1, “MICROORGANISM CAPTURE FROM ANTIMICROBIAL-CONTAINING SOLUTION” (MOMENTUM BIOSCIENCE LIMITED, priority 2019, published 2024).

Columns and labels:
S. aureus [1] = settings: cited from earlier work
E. coli [2] = test: Blood culture time to positivity (flip time), bead rescue vs no-rescue control; format: cell-based; settings: Cefepime 164 mg/L blood; for Flip time: Bead rescue; for Flip time in Days: Control (FA plus bottle)
Description: (§1) Day 1: Prepare overnight culture of test organism in blood/broth medium (50:50 blood:broth) and incubate at 37° C. in a shaking incubator.
Day 2: Prepare ten-fold serial dilution of overnight culture in blood/broth as required and incubate at 37° C. for 2 h for outgrowth.
Add 5 mL of spiked blood+beads (set 1) and 5 mL of spiked blood/Abx+beads (set 3) to blood culture bottles (BioMerieux SA culture bottle) using a vial adapter (West Pharmaceutical Services, Inc. PA, US).
Remove the adaptor and incubate the blood culture bottles in the automated blood culture cabinet (BacT/ALERT BioMerieux) for up to 5 days.
Record the “Flip” time of each bottle or bottle result at the end of 5 days incubation. The “Flip” time is when a bottle turns positive as determined by the automated blood culture cabinet, which records time to positivity.
Day 1: Prepare overnight culture of test organism in blood/broth medium (50:50 blood:broth) and incubate at 37° C. (or 30° C. for C. neoformans) in a shaking incubator.
(or 30° C. for C. neoformans) for 2 h for outgrowth. • Antibiotic added to whole blood (defibrinated horse blood) at required level • Whole blood as no-antibiotic control • Test dilution(s) of organism added to blood+antibiotic or blood only at 10 μL per mL of blood (sufficient prepared for experiment requirements) • 100 μL plate count sample taken (TO sample) • 2-hour incubation (static) at 37° C. (or 30° C. for C. neoformans) • 100 μL plate count sample taken (T2 sample) • 5 mL of spiked blood+abx or blood only added to blood culture bottle (using vial adapter) and incubation started (adapter removed) • 5 mL of spiked blood+abx or blood only (from same source) treated with Momentum Capture Beads as below: • 1. Capture Beads diluted in the relevant Capture Reagent—50 μL beads:700 μL capture reagent per clean-up • 2. 750 μL of diluted beads added to 50 mL conical centrifuge tube • 3. 5 mL of transfer medium added to tube • 4. 5 mL of spiked blood+abx or blood only added to tube • 5. […] Magnetise on V&P magnet for 10 min then remove supernatant • 7. Resuspend beads in 1 mL Detergent-free Wash Buffer (DWB) off magnet and transfer to 2 mL Eppendorf flip-top tube on DynaMag-2 magnet • 8. Magnetise for 3 min then remove supernatant • 9. Resuspend beads in 1 mL Detergent-free Wash Buffer (DWB) off magnet then replace on DynaMag-2 magnet • 10. Magnetise for 3 min then remove supernatant • 11. Resuspend beads in 1 mL DWB, add to new blood culture bottle (using vial adapter) and start incubation (adapter removed)
Momentum Capture Beads diluted in the relevant Capture Reagent—50 μL beads:700 μL capture reagent per clean-up • 2. 750 μL of diluted beads added to 50 mL conical centrifuge tube • 3. 5 mL of transfer medium added to tube • 4. 5 mL of spiked blood+abx or blood only added to tube • 5. […] Magnetise on V&P magnet for 10 min then remove supernatant • 7. Resuspend beads in 1 mL Detergent-free Wash Buffer (DWB) off magnet and transfer to 2 mL Eppendorf flip-top tube on DynaMag-2 magnet • 8. Magnetise for 3 min then remove supernatant • 9. Resuspend beads in 1 mL Detergent-free Wash Buffer (DWB) off magnet then replace on DynaMag-2 magnet • 10. Magnetise for 3 min then remove supernatant • 11. Resuspend beads in 1 mL DWB, add to an unused blood culture bottle (BioMerieux FA+culture bottle) using vial adapter and start incubation (adapter removed)

E. coli [3] = settings: cited from earlier work
S. aureus [4] = test: Blood culture time to positivity (flip time), bead rescue vs no-rescue control; format: cell-based; settings: for Flip time: Cefepime 164 mg/L blood; for Difference (Days) compared to BE / Flip time in Days: Vancomycin 500 mg/L blood, antibiotic-labelled line = BC control without beads; for Flip time in Days: bead rescue with named bead type; for Bead Rescue Flip time / Control Flip time in Days: antibiotic 500 mg/L blood
Description: An overnight culture of test organism was prepared in blood/broth medium (50:50 blood:broth medium from a BioMerieux SA culture bottle).
Ten-fold serial dilutions of overnight culture was prepared in blood/broth as required.
Antibiotic (abx) was added to whole human blood (in citrate-phosphate-dextrose, CPD, an anticoagulant) at required level.
Whole blood was used as the no-antibiotic control.
Test dilution(s) of organism was added to blood+antibiotic or blood only at 10 μL per mL of blood (sufficient prepared for experiment requirements). 100 μL plate count sample was taken (TO sample).
The inoculated samples were incubated at 37° C. (static) for 2-hour. 100 μL plate count sample was taken (T2 sample).
For the control, 5 mL of spiked blood+abx or blood only was added to blood culture bottles (BioMerieux SA culture bottle) using a vial adapter (West Pharmaceutical Services, Inc. PA, US) and incubated in the automated blood culture cabinet (adapter removed).
For the ‘rescue’ test, 5 mL of spiked blood+abx or blood only was treated with Momentum Capture Beads (Streptavidin-coated, −300 nm beads, Bio estapor, Merk Cat #BE-M 08/0.3) as below: • Momentum Capture Beads diluted in Detergent-free Microbial Binding Buffer (DMBB—Tris+NaCl)—50 μL beads:700 μL DMBB per clean-up • 750 μL of diluted beads added to 50 mL conical centrifuge tube • 5 mL of broth medium added to tube • 5 mL of spiked blood+abx or blood only added to tube • Incubate on ITL TherMix (Integrated Technologies Ltd. Kent, UK), 32.5° C./30 min/1000 rpm—ramped speed protocol • Magnetise on V&P magnet (V&P scientific Inc, CA, US) for 5 min then remove supernatant • Resuspend beads in 1 mL Detergent-free Wash Buffer (DWB—Tris+NaCl) off magnet and transfer to 2 mL Eppendorf flip-top tube on DynaMag-2 magnet (Thermo Fisher Scientific, Life Technologies Ltd. Paisley, UK) • Magnetise for 5 min then remove supernatant • Resuspend beads in 1 mL DWB off magnet then replace on DynaMag-2 magnet • Magnetise for 5 min then remove supernatant • Resuspend beads in 1 mL DWB, add to a fresh, unused blood culture bottle (BioMerieux SA culture bottle) containing standard blood culture growth medium using a vial adapter, and start incubation (adapter removed). • Blood culture bottles are incubated in the automated blood culture cabinet (BacT/ALERT BioMerieux) which records time to positivity. The “Flip” time is when a bottle turns positive as determined by the automated blood culture cabinet. • “Flip” time of each bottle is recorded. • Plate counts (Total Viable Count TVC) are recorded.
as §1
Day 2: Prepare ten-fold serial dilution of overnight culture in blood/broth as required • Antibiotic added to whole blood (defibrinated horse blood) at required level • Whole blood as no-antibiotic control • Test dilution(s) of organism added to blood+antibiotic or blood only at 10 μL per mL of blood (sufficient prepared for experiment requirements) • 100 μL plate count sample taken (TO sample) • 2-hour incubation at 37° C. (static), to mimic organism exposure to antimicrobials in the patient • 100 μL plate count sample taken (T2 sample) • 5 mL of spiked blood+abx or blood only added to blood culture bottle (using vial adapter) and incubation started (adapter removed) • 5 mL of spiked blood+abx or blood only (from same source) treated with Momentum Capture Beads as below: • 1. Momentum Capture Beads diluted in Detergent-free Microbial Binding Buffer (DMBB)—50 μL beads:700 μL DMBB per clean-up • 2. 750 μL of diluted beads added to 50 mL conical centrifuge tube • 3. 5 mL of transfer medium added to tube • 4. 5 mL of spiked blood+abx or blood only added to tube • 5.

Pseudomonas aeruginosa = settings: P. aeruginosa; cited from earlier work
Klebsiella pneumoniae = settings: K. pneumoniae; cited from earlier work
S. aureus [5] = test: Antibiotic breakpoint experiment (plate counts at 0, 2.5 and 5 hours); format: cell-based; settings: two different strains of S. aureus, every time point
Description: To determine a starting point in terms of antibiotic concentration and microbial load for subsequent experiments. Antibiotic concentration ranges were tested to find appropriate breakpoints for use in experiments. A range of antibiotic concentrations were tested against a given microbial load to determine the concentration at which growth was inhibited but the microorganisms were not killed. This was determined by plate counts at intervals of 0, 2.5 and 5 hours.
• 1. Day 1: Prepare an overnight culture of the test organism in 3 mL of blood/broth solution (1.5 mL defibrinated Horse blood: 1.5 mL transfer Medium). • 2. Day 2: Dissolve antibiotic in required diluent to prepare a suitable stock solution and prepare a dilution series in Nuclease-free Water to cover a final concentration range of 100 to 0.001 and Omg/L. • 3. Dilute the overnight culture of the microorganism to the required point in pre-warmed blood/broth solution. This may require determining for each organism/antibiotic combination, but as a starting dilution 10-4 will be used (giving a final concentration in the sample of 10-5). • 4. Aliquot 980 μL of pre-warmed defibrinated horse blood into the required number of 2 mL flip-top tube. • 5. […]
The concentrations determined by this protocol were used in the following examples unless stated otherwise. […]

SMILES: CO/N=C(\C(=O)N[C@@H]1C(=O)N2C(C(=O)[O-])=C(C[N+]3(C)CCCC3)CS[C@H]12)c1csc(N)n1 [Cefepime]
- MIC (S. aureus [1]): ≤4 µg/mL
- Flip time (E. coli [2]; 125000 cfu/5 mL blood): 0.47 days
- Flip time (E. coli [2]; 1250000 cfu/5 mL blood): 0.38 days
- Flip time in Days (E. coli [2]; 125000 cfu/5 mL blood): Neg
- Flip time in Days (E. coli [2]; 1250000 cfu/5 mL blood): Neg
- MIC (E. coli [3]): ≤1 µg/mL
- Flip time (S. aureus [4]; Bead rescue, 125000 cfu/5 mL blood): 0.46 days
- Flip time (S. aureus [4]; Bead rescue, 750000 cfu/5 mL blood): 0.39 days
- Flip time (S. aureus [4]; Control (FA plus bottle), 125000 cfu/5 mL blood): 2.69 days
- Flip time (S. aureus [4]; Control (FA plus bottle), 750000 cfu/5 mL blood): 2.49 days
- MIC (Pseudomonas aeruginosa): ≤1 µg/mL
- MIC (Klebsiella pneumoniae): ≤1 µg/mL

SMILES: CN[C@H](CC(C)C)C(=O)N[C@H]1C(=O)N[C@@H](CC(N)=O)C(=O)N[C@H]2C(=O)N[C@H]3C(=O)N[C@H](C(=O)N[C@H](C(=O)O)c4cc(O)cc(O)c4-c4cc3ccc4O)[C@H](O)c3ccc(c(Cl)c3)Oc3cc2cc(c3O[C@@H]2O[C@H](CO)[C@@H](O)[C@H](O)[C@H]2O[C@H]2C[C@](C)(N)[C@H](O)[C@H](C)O2)Oc2ccc(cc2Cl)[C@H]1O [Vancomycin]
- Growth in antibiotic dilution series (breakpoint experiment) (S. aureus [5]): grew in every dilution
- No-rescue blood culture control result (S. aureus [4]; Example 23, S. aureus in blood containing 500 mg/L Vancomycin): negative after 5 days
- No-rescue blood culture controls result (S. aureus [4]; Example 24, S. aureus in blood containing 500 mg/L Vancomycin): negative
- Difference (Days) compared to BE (S. aureus [4]; 20000 Cfu/mL): Negative
- Flip time in Days (S. aureus [4]; 20000 Cfu/mL): Negative
- Difference (Days) compared to BE (S. aureus [4]; 35760 Cfu/mL): Negative
- Flip time in Days (S. aureus [4]; 35760 Cfu/mL): Negative
- Difference (Days) compared to BE (S. aureus [4]; 200000 Cfu/mL): Negative
- Flip time in Days (S. aureus [4]; 200000 Cfu/mL): Negative
- Difference (Days) compared to BE (S. aureus [4]; 357600 Cfu/mL): Negative
- Flip time in Days (S. aureus [4]; 357600 Cfu/mL): Negative
- Bead Rescue Flip time (S. aureus [4]; 1000 cfu/5 mL Blood): 1.15 days
- Control Flip time in Days (S. aureus [4]; 1000 cfu/5 mL Blood): Neg
- Bead Rescue Flip time (S. aureus [4]; 100000 cfu/5 mL Blood): 0.66 days
- Control Flip time in Days (S. aureus [4]; 100000 cfu/5 mL Blood): Neg
- Bead Rescue Flip time (S. aureus [4]; 1000000 cfu/5 mL Blood): 0.61 days
- Control Flip time in Days (S. aureus [4]; 1000000 cfu/5 mL Blood): Neg
